In ChEMBL document CHEMBL1938249, “Synthesis, antimalarial activity, and structure-activity relationship of 7-(2-phenoxyethoxy)-4(1H)-quinolones” (J Med Chem, 2011):

How the values were obtained:
Plasmodium falciparum [1] = assay: Antimalarial activity against chloroquine-, pyrimethamine-resistant ring stage Plasmodium falciparum W2 infected in human A positive erythrocytes after 72 hrs by SYBR green 1-based fluorescence assay; assay type: functional, organism-based; conditions: W2, 72 h
Plasmodium falciparum [2] = assay: Antimalarial activity against chloroquine-, mefloquine-, pyrimethamine-,atovaquone-resistant ring stage Plasmodium falciparum TM90-C2B infected in human A positive erythrocytes after 72 hrs by SYBR green 1-based fluorescence assay; assay type: functional, organism-based
Plasmodium falciparum [3] = assay: Resistance ratio, ratio of EC50 for chloroquine-, mefloquine, pyrimethamine-,atovaquone-resistant ring stage Plasmodium falciparum TM90-C2B to EC50 for chloroquine-, pyrimethamine-resistant Plasmodium falciparum W2; assay type: functional
J774 [4] = assay: Antiproliferative against mouse J774 cells after 72 hrs by Cell titer assay; assay type: cell-based; conditions: J774, 72 h
J774 [5] = assay: Antiproliferative against mouse J774 cells at < 20 uM after 72 hrs by Cell titer assay; assay type: cell-based; conditions: j774, 72 h
[6] = Cytotoxicity index, ratio of EC50 for mouse J774 cells to EC50 for chloroquine-, mefloquine, pyrimethamine-,atovaquone-resistant ring stage Plasmodium falciparum TM90-C2B; assay type: cell-based; conditions: read-out: Ratio EC50

## CCCCc1cc2c(=O)c(-c3ccc(C(F)(F)F)cc3F)c(C)[nH]c2cc1OCCOc1ccccc1
Plasmodium falciparum [1]
  EC50: 27.9 nM
Plasmodium falciparum [2]
  EC50: 30.9 nM
Plasmodium falciparum [3]
  Ratio EC50: 1.11
J774 [4]
  EC50: 19000 nM
J774 [5]
  Activity: Non-toxic
[6]
  selectivity ratio: ≥ 100

## CCCCc1cc2c(=O)c(C(=O)OC)c[nH]c2cc1OCCOc1ccccc1
Plasmodium falciparum [1]
  EC50: 0.05 nM
Plasmodium falciparum [2]
  EC50: 11.2 nM
Plasmodium falciparum [3]
  Ratio EC50: 223
J774 [4]
  EC50: 46000 nM
J774 [5]
  Activity: Non-toxic
[6]
  selectivity ratio: ≥ 100

## COC(=O)c1c[nH]c2cc(OC)c(Cl)cc2c1=O
Plasmodium falciparum [1]
  EC50: 134 nM
Plasmodium falciparum [2]
  EC50: 765 nM
Plasmodium falciparum [3]
  Ratio EC50: 5.7
J774 [4]
  EC50: 37000 nM
J774 [5]
  Activity: Non-toxic
[6]
  selectivity ratio: ≥ 100

## CCCCc1cc2c(=O)cc(C)[nH]c2cc1OCCOc1ccccc1
Plasmodium falciparum [1]
  EC50: 216 nM
Plasmodium falciparum [2]
  EC50: 44.1 nM
Plasmodium falciparum [3]
  Ratio EC50: 0.2
J774 [4]
  EC50: 28000 nM
J774 [5]
  Activity: Non-toxic
[6]
  selectivity ratio: ≥ 100

## CCCCc1cc2c(=O)c(CC)c(C)[nH]c2cc1OCCOc1ccccc1
Plasmodium falciparum [1]
  EC50: 1.92 nM
Plasmodium falciparum [2]
  EC50: 0.15 nM
Plasmodium falciparum [3]
  Ratio EC50: 0.08
J774 [4]
  EC50: 1000 nM
J774 [5]
  Activity: Non-toxic
[6]
  selectivity ratio: ≥ 100

## CCc1c(C)[nH]c2cc(OCCOc3ccccc3)ccc2c1=O
Plasmodium falciparum [1]
  EC50: 104 nM
Plasmodium falciparum [2]
  EC50: 71.3 nM
Plasmodium falciparum [3]
  Ratio EC50: 0.79
J774 [4]
  EC50: 4000 nM
J774 [5]
  Activity: Non-toxic
[6]
  selectivity ratio: ≥ 100

## CCc1c(C)[nH]c2cc(OCCOc3ccccc3)c(Cl)cc2c1=O
Plasmodium falciparum [1]
  EC50: 256 nM
Plasmodium falciparum [2]
  EC50: 72.1 nM
Plasmodium falciparum [3]
  Ratio EC50: 0.28
J774 [4]
  EC50: > 28000 nM
J774 [5]
  Activity: Non-toxic
[6]
  selectivity ratio: ≥ 100

## CCc1c(C)[nH]c2cc(OCCOc3ccccc3)c(Br)cc2c1=O
Plasmodium falciparum [1]
  EC50: 203 nM
Plasmodium falciparum [2]
  EC50: 43.5 nM
Plasmodium falciparum [3]
  Ratio EC50: 0.21
J774 [4]
  EC50: > 25000 nM
J774 [5]
  Activity: Non-toxic
[6]
  selectivity ratio: ≥ 100

## CCc1c(C)[nH]c2cc(OCCOc3ccccc3)c(C)cc2c1=O
Plasmodium falciparum [1]
  EC50: 255 nM
Plasmodium falciparum [2]
  EC50: 27.7 nM
Plasmodium falciparum [3]
  Ratio EC50: 0.11
J774 [4]
  EC50: > 30000 nM
J774 [5]
  Activity: Non-toxic
[6]
  selectivity ratio: ≥ 100

## CCc1c(C)[nH]c2cc(OCCOc3ccccc3)c(OC)cc2c1=O
Plasmodium falciparum [1]
  EC50: 184 nM
Plasmodium falciparum [2]
  EC50: 19.5 nM
Plasmodium falciparum [3]
  Ratio EC50: 0.11
J774 [4]
  EC50: > 29000 nM
J774 [5]
  Activity: Non-toxic
[6]
  selectivity ratio: ≥ 100

## CCc1c(C)[nH]c2cc(OCOC)c(Cl)cc2c1=O
Plasmodium falciparum [1]
  EC50: 908 nM
Plasmodium falciparum [2]
  EC50: 79.7 nM
Plasmodium falciparum [3]
  Ratio EC50: 0.09
J774 [4]
  EC50: 19000 nM
J774 [5]
  Activity: Non-toxic
[6]
  selectivity ratio: ≥ 100

## CCc1c(C)[nH]c2cc(OCCCO)c(Cl)cc2c1=O
Plasmodium falciparum [1]
  EC50: 8450 nM
Plasmodium falciparum [2]
  EC50: 776 nM
Plasmodium falciparum [3]
  Ratio EC50: 0.09
J774 [5]
  Activity: Non-toxic
[6]
  selectivity ratio: ≥ 100

## CCc1c(C)[nH]c2cc(OCCCOC(=O)C(CC)C(C)=O)c(Cl)cc2c1=O (stereo not given)
Plasmodium falciparum [1]
  EC50: 6130 nM
Plasmodium falciparum [2]
  EC50: 6130 nM
Plasmodium falciparum [3]
  Ratio EC50: 1
J774 [5]
  Activity: Non-toxic
[6]
  selectivity ratio: ≥ 100

## CCc1c(C)[nH]c2cc(OCCN3CCOCC3)c(Cl)cc2c1=O
Plasmodium falciparum [1]
  EC50: 5090 nM
Plasmodium falciparum [2]
  EC50: 726 nM
Plasmodium falciparum [3]
  Ratio EC50: 0.14
J774 [5]
  Activity: Non-toxic
[6]
  selectivity ratio: ≥ 100

## CCc1c(C)[nH]c2cc(OCCN(C)C)c(Cl)cc2c1=O
Plasmodium falciparum [1]
  EC50: 5050 nM
Plasmodium falciparum [2]
  EC50: 604 nM
Plasmodium falciparum [3]
  Ratio EC50: 0.12
J774 [5]
  Activity: Non-toxic
[6]
  selectivity ratio: ≥ 100

## CCc1c(C)[nH]c2cc(OCCCN3CCN(c4ccccc4)CC3)c(Cl)cc2c1=O
Plasmodium falciparum [1]
  EC50: 976 nM
Plasmodium falciparum [2]
  EC50: 91.7 nM
Plasmodium falciparum [3]
  Ratio EC50: 0.09
J774 [4]
  EC50: > 23000 nM
J774 [5]
  Activity: Non-toxic
[6]
  selectivity ratio: ≥ 100

## CCCCc1cc2c(=O)c(-c3ccccc3)c(C)[nH]c2cc1OCCOc1ccccc1
Plasmodium falciparum [1]
  EC50: 1070 nM
Plasmodium falciparum [2]
  EC50: 764 nM
Plasmodium falciparum [3]
  Ratio EC50: 0.71
J774 [4]
  EC50: 23000 nM
J774 [5]
  Activity: Non-toxic
[6]
  selectivity ratio: ≥ 100

## CCCCc1cc2c(=O)c(-c3ccncc3)c(C)[nH]c2cc1OCCOc1ccccc1
Plasmodium falciparum [1]
  EC50: 3150 nM
Plasmodium falciparum [2]
  EC50: 1020 nM
Plasmodium falciparum [3]
  Ratio EC50: 0.32
J774 [4]
  EC50: 23000 nM
J774 [5]
  Activity: Non-toxic
[6]
  selectivity ratio: ≥ 100

## CCCCc1cc2c(=O)c(-c3cccnc3)c(C)[nH]c2cc1OCCOc1ccccc1
Plasmodium falciparum [1]
  EC50: 1350 nM
Plasmodium falciparum [2]
  EC50: 588 nM
Plasmodium falciparum [3]
  Ratio EC50: 0.44
J774 [4]
  EC50: 23000 nM
J774 [5]
  Activity: Non-toxic
[6]
  selectivity ratio: ≥ 100

## CCCCc1cc2c(=O)c(-c3ccc(C(F)(F)F)cc3)c(C)[nH]c2cc1OCCOc1ccccc1
Plasmodium falciparum [1]
  EC50: 509 nM
Plasmodium falciparum [2]
  EC50: 2450 nM
Plasmodium falciparum [3]
  Ratio EC50: 4.82
J774 [4]
  EC50: 20000 nM
J774 [5]
  Activity: Non-toxic
[6]
  selectivity ratio: ≥ 100

## CCCCc1cc2c(=O)c(-c3ccc(OC(F)(F)F)cc3)c(C)[nH]c2cc1OCCOc1ccccc1
Plasmodium falciparum [1]
  EC50: 3220 nM
Plasmodium falciparum [2]
  EC50: 2510 nM
Plasmodium falciparum [3]
  Ratio EC50: 0.78
J774 [4]
  EC50: 20000 nM
J774 [5]
  Activity: Non-toxic
[6]
  selectivity ratio: ≥ 100

## CCCCc1cc2c(=O)c(-c3cccc(Oc4ccc(F)cc4)c3)c(C)[nH]c2cc1OCCOc1ccccc1
Plasmodium falciparum [1]
  EC50: 1390 nM
Plasmodium falciparum [2]
  EC50: 1000 nM
Plasmodium falciparum [3]
  Ratio EC50: 0.72
J774 [4]
  EC50: 19000 nM
J774 [5]
  Activity: Non-toxic
[6]
  selectivity ratio: ≥ 100

## CCCCc1cc2c(=O)c(-c3ccc(COc4ccc(OC(F)(F)F)cc4)cc3)c(C)[nH]c2cc1OCCOc1ccccc1
Plasmodium falciparum [1]
  EC50: 4050 nM
Plasmodium falciparum [2]
  EC50: 4050 nM
Plasmodium falciparum [3]
  Ratio EC50: 1
J774 [4]
  EC50: 16000 nM
J774 [5]
  Activity: Non-toxic
[6]
  selectivity ratio: ≥ 100

## CCCCc1cc2c(=O)c(-c3ccc(Oc4ccc(OC(F)(F)F)cc4)cc3C)c(C)[nH]c2cc1OCCOc1ccccc1
Plasmodium falciparum [1]
  EC50: 58.5 nM
Plasmodium falciparum [2]
  EC50: 475 nM
Plasmodium falciparum [3]
  Ratio EC50: 8.12
J774 [4]
  EC50: 16000 nM
J774 [5]
  Activity: Non-toxic
[6]
  selectivity ratio: ≥ 100

## CCCCc1cc2c(=O)c(-c3ccc(C(F)(F)F)cc3C)c(C)[nH]c2cc1OCCOc1ccccc1
Plasmodium falciparum [1]
  EC50: 71.8 nM
Plasmodium falciparum [2]
  EC50: 140 nM
Plasmodium falciparum [3]
  Ratio EC50: 1.95
J774 [4]
  EC50: 20000 nM
J774 [5]
  Activity: Non-toxic
[6]
  selectivity ratio: ≥ 100

## CCCCc1cc2c(=O)c(-c3ccc(C)cc3C)c(C)[nH]c2cc1OCCOc1ccccc1
Plasmodium falciparum [1]
  EC50: 907 nM
Plasmodium falciparum [2]
  EC50: 1630 nM
Plasmodium falciparum [3]
  Ratio EC50: 1.79
J774 [4]
  EC50: 22000 nM
J774 [5]
  Activity: Non-toxic
[6]
  selectivity ratio: ≥ 100

## CCCCc1cc2c(=O)c(-c3ccc(Cl)cc3C)c(C)[nH]c2cc1OCCOc1ccccc1
Plasmodium falciparum [1]
  EC50: 68.7 nM
Plasmodium falciparum [2]
  EC50: 542 nM
Plasmodium falciparum [3]
  Ratio EC50: 7.89
J774 [4]
  EC50: > 21000 nM
J774 [5]
  Activity: Non-toxic
[6]
  selectivity ratio: ≥ 100

## CCCCc1cc2c(=O)c(-c3c(C)noc3C)c(C)[nH]c2cc1OCCOc1ccccc1
Plasmodium falciparum [1]
  EC50: 27 nM
Plasmodium falciparum [2]
  EC50: 128 nM
Plasmodium falciparum [3]
  Ratio EC50: 4.73
J774 [4]
  EC50: 22000 nM
J774 [5]
  Activity: Non-toxic
[6]
  selectivity ratio: ≥ 100

## O=C1C(O)=C([C@H]2CC[C@H](c3ccc(Cl)cc3)CC2)C(=O)c2ccccc21 [ATOVAQUONE]
Plasmodium falciparum [2]
  EC50: > 170 nM
